# Measurements published in patent US8664220B2, “Polycyclic compounds as lysophosphatidic acid receptor antagonists” (Amira Pharmaceuticals, Inc., priority 2009, dated 2014).
# Molecular target: T1, human LPA1 (Homo sapiens, UniProt Q92633)
# T1 construct: the full-length cDNA for human LPA1 was obtained by PCR of the reverse transcription reaction; expressed in transfected cells
# Test: LPA1 calcium flux assay
# Format: cell-based
# Details: human LPA1 expressing CHO cells, stimulated with 10 nM LPA; read-out: HLPA1 Ca Flux IC50
# Outline: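 CHO cells stably expressing human LPA1, serum-starved overnight and loaded with Calcium 4 dye in HBSS/20 mM Hepes/0.3% fatty-acid-free HSA, 1 h at 37 °C. Compounds pre-incubated 30 min at room temperature, then 10 nM LPA added; intracellular Ca2+ flux measured and IC50 from titration curves.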
# T1 sequence (Q92633 whole entry): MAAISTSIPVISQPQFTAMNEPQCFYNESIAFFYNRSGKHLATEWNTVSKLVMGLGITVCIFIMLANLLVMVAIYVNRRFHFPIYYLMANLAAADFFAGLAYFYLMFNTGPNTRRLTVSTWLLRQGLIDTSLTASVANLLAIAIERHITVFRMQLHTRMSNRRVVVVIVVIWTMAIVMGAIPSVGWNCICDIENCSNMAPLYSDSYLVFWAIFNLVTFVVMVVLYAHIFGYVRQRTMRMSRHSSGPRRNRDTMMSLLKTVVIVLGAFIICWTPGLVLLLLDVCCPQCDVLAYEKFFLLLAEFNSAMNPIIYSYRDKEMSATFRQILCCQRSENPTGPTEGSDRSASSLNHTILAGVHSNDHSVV
row,IC50,SMILES
1,< 300 nM,"Cc1noc(-c2ccc(-c3ccc(C4(C(=O)O)CC4)cc3)cc2)c1Cn1cc(Cc2ccccc2)nn1 [Compound 1-9, 1-{4′-[4-(4-Benzyl-[1,2,3]triazol-1-ylmethyl)-3-methyl-isoxazol-5-yl]-biphenyl-4-yl}-cyclopropanecarboxylic acid]"
2,< 300 nM,"Cc1noc(-c2ccc(-c3ccc(C4(C(=O)O)CC4)cc3)cc2)c1Nc1cccc(N2CCOCC2)n1 [Compound 1-124, 1-{4′-[3-Methyl-4-(6-morpholin-4-yl-pyridin-2-ylamino)-isoxazol-5-yl]-biphenyl-4-yl}-cyclopropanecarboxylic acid]"
3,< 300 nM,"Cc1noc(-c2ccc(-c3ccc(C4(C(=O)O)CC4)cc3)cc2)c1Nc1cccc(-n2cccn2)n1 [Compound 1-123, 1-{4′-[3-Methyl-4-(6-pyrazol-1-yl-pyridin-2-ylamino)-isoxazol-5-yl]-biphenyl-4-yl}-cyclopropanecarboxylic acid]"
4,< 300 nM,"Cc1noc(-c2ccc(-c3ccc(C4(C(=O)O)CC4)cc3)cc2)c1Nc1cccc(-c2cccc(C(F)(F)F)c2Cl)n1 [Compound 1-157, 1-(4′-{4-[6-(2-Chloro-3-trifluoromethyl-phenyl)-pyridin-2-ylamino]-3-methyl-isoxazol-5-yl}-biphenyl-4-yl)-cyclopropanecarboxylic acid]"
5,< 300 nM,"Cc1noc(-c2ccc(-c3ccc(C4(CC(=O)O)CC4)cc3)cc2)c1Nc1cccc(-c2ccccc2)n1 [Compound 1-134, (1-{4′-[3-Methyl-4-(6-phenyl-pyridin-2-ylamino)-isoxazol-5-yl]-biphenyl-4-yl}-cyclopropyl)-acetic acid]"
6,< 300 nM,"Cc1noc(-c2ccc(-c3ccc(C4(C(=O)O)CC4)cc3)cc2)c1Cn1nnc(-c2ccccc2)n1 [Compound 1-21, 1-{4′-[3-Methyl-4-(5-phenyl-tetrazol-2-ylmethyl)-isoxazol-5-yl]-biphenyl-4-yl}-cyclopropanecarboxylic acid]"
7,300 to 1000 nM,"Cc1noc(-c2ccc(-c3ccc(C4(C(=O)O)CC4)cc3)cc2)c1C(O)c1cn(Cc2c(Cl)cccc2Cl)nn1 (stereo not shown) [Compound 1-72, 1-[4′-(4-{[1-(2,6-Dichloro-benzyl)-1H-[1,2,3]triazol-4-yl]-hydroxy-methyl}-3-methyl-isoxazol-5-yl)-biphenyl-4-yl]-cyclopropanecarboxylic acid]"
8,< 300 nM,"CCc1noc(-c2ccc(-c3ccc(C4(C(=O)O)CC4)cc3)cc2)c1Nc1cccc(-c2ccccc2)n1 [Compound 2-1, 1-{4′-[3-Ethyl-4-(6-phenyl-pyridin-2-ylamino)-isoxazol-5-yl]-biphenyl-4-yl}-cyclopropanecarboxylic acid]"
9,< 300 nM,"Cc1noc(-c2ccc(-c3ccc(C4(C(=O)NS(C)(=O)=O)CC4)cc3)cc2)c1Nc1cccc(Cc2ccccc2)n1 [Compound 3-5, N-(1-{4′-[4-(6-Benzyl-pyridin-2-ylamino)-3-methyl-isoxazol-5-yl]-biphenyl-4-yl}-cyclopropanecarbonyl)-methanesulfonamide]"
10,< 300 nM,"Cc1noc(-c2ccc(-c3ccc(C4(C(=O)O)CC4)cc3)cc2)c1Nc1nnc(Cc2ccccc2)o1 [Compound 1-83, 1-{4′-[4-(5-Benzyl-[1,3,4]oxadiazol-2-ylamino)-3-methyl-isoxazol-5-yl]-biphenyl-4-yl}-cyclopropanecarboxylic acid]"
11,< 300 nM,"Cc1noc(-c2ccc(-c3ccc(C4(C(=O)O)CC4)cc3)cc2)c1C1OC1CCc1ccccc1 (stereo not shown) [Compound 1-4, 1-{4′-[3-Methyl-4-(3-phenethyl-oxiranyl)-isoxazol-5-yl]-biphenyl-4-yl}-cyclopropanecarboxylic acid]"
12,< 300 nM,"COc1ccc(F)cc1-c1cccc(Nc2c(C)noc2-c2ccc(-c3ccc(C4(C(=O)O)CC4)cc3)cc2)n1 [Compound 1-146, 1-(4′-{4-[6-(5-Fluoro-2-methoxy-phenyl)-pyridin-2-ylamino]-3-methyl-isoxazol-5-yl}-biphenyl-4-yl)-cyclopropanecarboxylic acid]"
13,< 300 nM,"Cc1noc(-c2ccc(-c3ccc(C4(C(=O)O)CC4)cc3)cc2)c1Nc1cccc(Cc2ccccc2)c1 [Compound 1-90, 1-{4′-[4-(3-Benzyl-phenylamino)-3-methyl-isoxazol-5-yl]-biphenyl-4-yl}-cyclopropanecarboxylic acid]"
14,< 300 nM,"Cc1noc(-c2ccc(-c3ccc(C4(C(=O)O)CC4)cc3)cc2)c1Cc1nnc(-c2ccccc2)o1 [Compound 1-8, 1-{4′-[3-Methyl-4-(5-phenyl[1,3,4]oxadiazol-2-ylmethyl)-isoxazol-5-yl]-biphenyl-4-yl}-cyclopropanecarboxylic acid]"
15,300 to 1000 nM,"Cc1noc(-c2ccc(-c3ccc(C4(C(=O)O)CC4)cc3)cc2)c1Nc1ccnc(-c2ccccc2)c1 [Compound 1-111, 1-{4′-[3-Methyl-4-(2-phenyl-pyridin-4-ylamino)-isoxazol-5-yl]-biphenyl-4-yl}-cyclopropanecarboxylic acid]"
16,< 300 nM,"COc1ccccc1-c1cccc(Nc2c(C)noc2-c2ccc(-c3ccc(C4(C(=O)O)CC4)cc3)cc2)n1 [Compound 1-94, 1-(4′-{4-[6-(2-Methoxy-phenyl)-pyridin-2-ylamino]-3-methyl-isoxazol-5-yl}-biphenyl-4-yl)-cyclopropanecarboxylic acid]"
17,< 300 nM,"Cc1noc(-c2ccc(-c3ccc(C4(C(=O)O)CC4)cc3)cc2)c1Nc1cncc(-c2cccc(Cl)c2)c1 [Compound 1-160, 1-(4′-{4-[5-(3-Chloro-phenyl)-pyridin-3-ylamino]-3-methyl-isoxazol-5-yl}-biphenyl-4-yl)-cyclopropanecarboxylic acid]"
18,< 300 nM,"Cc1noc(-c2ccc(-c3ccc(C4(C(=O)O)CC4)cc3)cc2)c1C(O)c1nnc(Cc2ccccc2)o1 (single isomer, unassigned) [Compound 1-35, 1-(4′-{4-[(5-Benzyl-[1,3,4]oxadiazol-2-yl)-hydroxy-methyl]-3-methyl-isoxazol-5-yl}-biphenyl-4-yl)-cyclopropanecarboxylic acid]"
19,1000 to 50000 nM,"Cc1noc(-c2ccc(-c3ccc(C4(C(=O)O)CC4)cc3)cc2)c1C(O)c1ccc(OCc2ccccc2)cc1 (stereo not shown) [Compound 1-54, 1-(4′-{4-[(4-Benzyloxy-phenyl)-hydroxy-methyl]-3-methyl-isoxazol-5-yl}-biphenyl-4-yl)-cyclopropanecarboxylic acid]"
20,< 300 nM,"Cc1noc(-c2ccc(-c3ccc(C4(C(=O)O)CC4)cc3)cc2)c1Nc1cccc(-c2ccccc2)c1 [Compound 1-74, 1-{4′-[4-(Biphenyl-3-ylamino)-3-methyl-isoxazol-5-yl]-biphenyl-4-yl}-cyclopropanecarboxylic acid]"
21,300 to 1000 nM,"CCOc1ccc(-c2cccc(Nc3c(C)noc3-c3ccc(-c4ccc(C5(C(=O)O)CC5)cc4)cc3)n2)cn1 [Compound 1-87, 1-{4′-[4-(6′-Ethoxy-[2,3]bipyridinyl-6-ylamino)-3-methyl-isoxazol-5-yl]-biphenyl-4-yl}-cyclopropanecarboxylic acid]"
22,1000 to 50000 nM,"Cc1noc(-c2ccc(-c3ccc(C4(C(=O)O)CC4)cc3)cc2)c1C(=O)N1CCN(S(=O)(=O)c2ccc(Cl)c(Cl)c2)CC1 [Compound 1-3, 1-(4′-{4-[4-(3,4-Dichloro-benzenesulfonyl)-piperazine-1-carbonyl]-3-methyl-isoxazol-5-yl}-biphenyl-4-yl)-cyclopropanecarboxylic acid]"
